Test system: male Zucker fatty rats
Assay: Subchronic (7 day) oral administration in male Zucker fatty rats, Method B14
Format: in vivo, rat
Source text: B14. Effects of Subchronic Administration of Representative Compounds of the Invention in Male Zucker Fatty Rats
The objective of this study is to determine the subchronic effects of test compounds on body weight change, food and water consumption, as well as glucose homeostasis and insulin levels in male Zucker fatty rats up to 7 days upon oral administration. The male Zucker fatty rat was selected as an insulin resistance and genetically defined obesity model which is sensitive to the effect of different insulin sensitizers in acute as well as in chronic settings.
Rats were individually housed in rodent cages with soft wood bedding on the bottom and equipped with water bottles. All individual cages were clearly labeled with a cage card indicating study number, group, animal number and dose level. Each animal was uniquely identified by an animal number. The animal number was designated the day the animals arrived at the animal facility. The animal room environment was controlled (targeted ranges: temperature 22±2° C.; relative humidity 50±10%; light/dark cycle: 12 hours light, 12 hours dark, lights on from 06:00 AM to 06:00 PM). A regular rodent diet (Charles River 5075 rodent chow, Purina Mills, Canada) was provided to the animals ad libitum, after food weighing. Municipal tap water was provided to the animals ad libitum via water bottles. Fresh tap water was provided after water bottle weighing.
An acclimation period of approximately 7 days for all groups was allowed between the receipt of animals and the start of treatment to accustom the rats to the laboratory environment. On experimental day −7, animals were stratified according to body weight into an appropriate number of groups of 4 or 8 animals each.
Test compound was administered, as a solution, orally, at the doses indicated. The dose volume was 5 mL/kg/day. Groups were dosed once daily around 8:00 a.m. On Day 3, on half of the animals (Subset A) and on Day 4 on the other half (Subset B), an OGTT was performed 2 hrs post-dosing (around 10:00 a.m.). The OGTT was repeated the same way on Days 7 (Subset A) and 8 (Subset B).
For the study animals, the data collected from study Days −7 to 8 are reported. Body weights were recorded for all animals on Day −7 prior to initiation of dosing, at the time of group assignment and daily throughout the study period (Day 1-8). Food and water intake was measured daily throughout the study period (Day 1-8). On Day 1 (Subset A), Day 2 (Subset B), Day 3 (Subset A), Day 4 (Subset B), Day 7 (Subset A) and Day 8 (Subset B), animals from Groups 2 and 3 were sampled for blood into EDTA coated tubes (K2-EDTA microtainer tubes, Becton Dickinson) from a tail vein (˜100 μl) 2 hrs post-dose for PK analysis. Blood was centrifuged at 4000 rpm for 10 min. at 4° C., and the resulting plasma transferred into non-coated tubes and stored at −80° C. until analysis.
An oral glucose tolerance test (OGTT) was carried out in animals of all groups on Day 3 (half of the animals) as well as on day 4 (other half of the animals). This was done 2 hrs post-dose. Animals were subjected to an overnight fast (food removed the day before at 5:00 PM). Blood samples of approximately 20 μL each for plasma glucose and 230 μL for plasma insulin measurements were collected into EDTA coated tubes (K2-EDTA microtainer tubes, Becton Dickinson) from a tail vein, at 0 (pre-glucose), 15, 30, 60, and 120 min after oral administration of 1.5 g/kg glucose (dextrose, Sigma Aldrich, 450 mg/mL dosing solution). The glucose solution was administered by oral gavage via a stainless steel feeding needle (18×2″, Popper @ Sons, cat. # 20068-642, VWR). While glucose concentrations were determined from a 20 μL drop of blood (Accu-Chek Aviva glucometers, Roche Diagnostics), the remaining 230 μL was centrifuged at 4000 rpm for 10 min. at 4° C., and the resulting plasma transferred into non-coated tubes and stored a −80° C. for insulin determination. […]

SMILES: CC[C@@H]1CCc2ccc(F)cc2OCCN[C@@H](C(C)C)C(=O)N(C)[C@@H](C(C)O)C(=O)N[C@H](Cc2c[nH]c3ccccc23)C(=O)N1 (some centres unmarked) [Compound 1505]
- food consumption on a daily basis vs vehicle controls (10 mg/kg, 2 day timepoint): significant reductions
- cumulative food consumption (30 mg/kg oral, FIG. 10): significant decrease
- net body weight (30 mg/kg oral, over the 7 day study period, FIG. 9): significant reduction
- food consumption on a daily basis vs vehicle controls (30 mg/kg, 2 day timepoint): significant reductions
- OGTT blood glucose versus untreated controls (30 mg/kg, at both day 3 and day 7): decrease
- insulin sensitivity index (attaining significance at the higher dose): higher
- free fatty acids (both treatment groups): significantly reduced
- total cholesterol (both treatment groups): significantly reduced
- food consumption on a daily basis vs vehicle controls (higher dose (30 mg/kg), through the 6 day timepoint): remained significant
- plasma levels (PK analysis) (oral administration): sufficient plasma levels
- insulin levels (area under the curve, AUC) in OGTT (rat, in vivo): lowering effect

From US20110105389A1 (priority 2009, published 2011)
